# Like-named read-outs stand apart in the source and are kept apart here.
# Columns and labels:
# [1] = system: ovine sepsis induced by intravenous infusion of live E. coli
# From the text: Using this model, the inventors have investigated the effect of mega dose intravenous vitamin C therapy on various parameters indicative of the progression of sepsis in sheep (Merino ewes, 35-45 kg; 1.5-2.0 years old). Sheep were divided into two groups, a vitamin C (sodium ascorbate) therapy group and a vehicle group as a control. Experimental protocols were approved by the Animal Ethics Committee of the Florey Institute of Neuroscience and Mental Health under guidelines of the National Health and Medical Research Council of Australia.
# Preparatory surgical procedures were carried out as described in Lankadeva et al. (2018b). Briefly, two preparatory surgical procedures were performed under general anaesthesia. First, a carotid artery was exteriorised into a skin fold to form a carotid arterial loop to facilitate cannulation for measurement of arterial pressure and heart rate, and for blood sampling. During the same surgical procedure, a flow probe was placed around the pulmonary artery to measure cardiac output. Animals were allowed 3-4 weeks of recovery. Second, a flow probe was implanted around a renal artery to measure renal blood flow, a renal vein was cannulated for blood sampling and fibre optic probes were inserted into the renal cortex, renal medulla (within kidneys) and parietal cortex (brain) to measure tissue perfusion, oxygen tension and temperature.
# During the second surgical procedure cannulae were implanted in the carotid artery for arterial pressure measurement and blood sampling and the jugular vein for infusion of fluids, vasopressors, Escherichia coli, sodium ascorbate and blood sampling, and a Foley catheter was inserted into the bladder to collect urine and monitor hourly urine output.
# Following three days of recovery from the second surgical procedure, the experimental protocol (see FIG. 1) was initiated in conscious sheep, to avoid the confounding effects of general anaesthesia. Animals daily food and water intake and urine output was measured on a 24-hour basis during the course of the 5-day protocol.
# First, a 24-hour baseline period was commenced, which included measurement of systemic haemodynamics, renal and brain perfusion and oxygenation, arterial, central venous and renal venous blood gases and lactate, and urine output. Arterial blood and urine samples were collected at set times during the experimental period.
# After establishment of the 24-hour baseline period, gram-negative sepsis was induced by intravenous infusion of live E. coli (isolated from a patient with sepsis at Austin Health) as described in Lankadeva et al. (2018b), administered as a loading (bolus) infusion of 2.8×10^9 colony-forming units (CFU) over 30-minutes followed by a continuous infusion of 1.26×10^9 CFU/h for 30.5 hours. No prophylactic antibiotics, sedative or analgesic agents were administered during this protocol. The description in the following paragraphs is with reference to the protocol as shown schematically in FIG. 1.
# At 23 hours of sepsis, when sheep had fulfilled the clinical criteria for sepsis (i.e. established hypotension, tachycardia, fever, lung injury, tachypnoea, hyperlactatemia and stage 1-2 acute kidney injury) animals were resuscitated with 30 mL/kg balanced crystalloid sodium lactate (Hartmann's solution infused at approximately 2500 ml/hr) for 30 mins, from 23-23.5 hours of sepsis.
# A blocked randomization design was used to allocate sheep to treatment with sodium ascorbate or vehicle.
# [2] = system: septic human patient with severe COVID-19; assay: Mega-dose sodium ascorbate in one septic patient with severe COVID-19 (Example 2); assay type: in vivo
# From the text: FIG. 6. Changes in systemic hemodynamics and renal function in response to mega-dose sodium ascorbate (Na Asc) treatment in one septic human patient with a severe case of COVID-19 disease 2019 (n=1). Norepinephrine dose (A), arterial blood oxygen tension (PO2) (filled squares) and inspired oxygen fraction (open circles) (B), mean arterial pressure (C), serum creatinine (D), heart rate (E), and urine output (F) are presented at pre-treatment (time 0), after a 30-min infusion of Na Asc bolus therapy (BT, 30 g), and then at hourly intervals during an infusion of Na Asc for 6.5 hr (4.6 g/hr).
# A person was admitted to ICU with severe COVID-19 disease. The patient presented with acute respiratory distress syndrome (ARDS), vasodilatory shock and acute kidney injury, with a temperature of 40° C. The patient was intubated and placed on a ventilator. At noon, their urinary output was 10 ml/hr.
# The patient (weighing approximately 80 kg) was administered 30 g of intravenous sodium ascorbate over 30 minutes beginning at 1 pm, followed by an infusion of 30 g sodium ascorbate over the next 6 hours.
# [3] = system: ovine sepsis induced by intravenous infusion of live E. coli; assay: Vitamin C dose response in ovine sepsis (Example 3); assay type: in vivo
# Method: The inventors then sought to determine the minimum dose of intravenous vitamin C required to reverse the pathophysiological features of sepsis and acute kidney injury, using the ovine sepsis model described in Example 1. Surgical procedures and initiation of gram negative sepsis were as described in Example 1.
# At 24 hours of sepsis, sheep were randomised into one of four groups (n=2 each): (i) sodium ascorbate treatment at 1 g/kg for 7 hours; (ii) sodium ascorbate treatment at 2 g/kg for 7 hours; (iii) sodium ascorbate treatment at 3 g/kg for 7 hours; or (iv) fluid-matched vehicle. Norepinephrine doses were titrated to achieve a target blood pressure (75-80 mm Hg). All sodium ascorbate doses were given as a bolus followed by a continuous infusion. The bolus doses for the 1, 2 and […] treatments were, respectively, 0.133, 0.267 and 0.4 g/kg (5.3, 10.7 and 16 g for a 40 kg sheep. Sodium ascorbate was diluted in 1:1 ratio with 5% glucose prior to intravenous administration. At 31 hours of sepsis, animals were euthanised for tissue collection to facilitate molecular and histological investigations.
# [4] = sodium ascorbate infusion, 24-31 hr of sepsis
# [5] = sodium ascorbate infusion, 24-31 hr of sepsis, maintained for the following 2 days
# [6] = 1, 2 and 3 g/kg sodium ascorbate compared, n=2 each
# [7] = 3 g/kg sodium ascorbate for 7 hours, n=2
smiles,measurement,setting,value
O=C1O[C@H]([C@@H](O)CO)C([O-])=C1O.[Na+] [sodium ascorbate],clinical state of septic sheep,"[1]; after infusion of sodium ascorbate for 3 hours, 0.5 g/kg bolus then 0.5 g/kg/hr iv, n=5",dramatically improved
same,"renal histology: acute tubular necrosis or interstitial fibrosis in renal cortex, corticomedullary junction or medulla",[1]; at 48 hours of recovery,no acute tubular necrosis or interstitial fibrosis
same,dose of norepinephrine required to maintain mean arterial pressure,"[1]; by 4 hours of sodium ascorbate infusion, n=5",not required in four of five sheep
same,body temperature,"[1]; during sodium ascorbate therapy, 24-31 hr of sepsis, septic fever 41.4±0.2",~39 °C
same,arterial blood potassium (hypokalemia),[1]; infusion of sodium ascorbate,3.14 ± 0.16 mmol/L
same,arterial blood sodium (hypernatremia),[1]; infusion of sodium ascorbate,153.6 ± 1.7 mmol/L
same,ischemia and hypoxia in the brain,[1]; sodium ascorbate 3.75 g/kg intravenous,a reversal of ischemia and hypoxia in the brain
same,arterial blood pH,[1]; [4],no effects
same,cardiac output,[1]; [4],"significant, progressive decreases"
same,creatinine clearance,[1]; [4],significantly increased
same,fraction excretion of potassium,[1]; [4],did not alter
same,fractional excretion of sodium,[1]; [4],significantly increased
same,heart rate,[1]; [4],"significant, progressive decreases"
same,partial pressure of carbon dioxide,[1]; [4],no effects
same,plasma creatinine,[1]; [4],corrected the increased plasma creatinine to below baseline levels
same,renal blood flow,[1]; [4],decreased toward healthy levels
same,renal cortical tissue PO2,[1]; [4],"Neither fluid bolus therapy, sodium ascorbate, nor norepinephrine had significant effects"
same,renal vascular conductance,[1]; [4],decreased toward healthy levels
same,level of peripheral vasoconstriction,"[1]; sodium ascorbate infusion, 24-31 hr of sepsis, despite reduced norepinephrine dose",increased
same,renal medullary PO2,[1]; [5],increased further throughout the infusion
same,renal medullary perfusion,[1]; [5],improved toward preseptic levels
same,arterial lactate,"[1]; sodium ascorbate infusion, 2.0±0.2 mmol/L at 23 hours of sepsis","significant, progressive reduction"
same,arterial PO2,"[1]; sodium ascorbate infusion, 80±3 at 23 hours of sepsis",96.5±3.4 mm Hg
same,increase in plasma aspartate aminotransferase during sepsis,[1]; sodium ascorbate treatment,significantly reduced
same,increase in plasma bilirubin during sepsis,[1]; sodium ascorbate treatment,significantly reduced
same,urine flow,[1]; the 2 days following sodium ascorbate infusion,remained at normal baseline levels
same,urine flow,"[1]; within 30 minutes of sodium ascorbate infusion, remained high throughout the infusion",greater than 10 mL/kg/hr
same,urinary output,"[2]; 1st hour post initiation of treatment, 10 ml/hr prior to treatment",175 mL/h
same,urinary output,[2]; 2nd hour post initiation of treatment,160 mL/h
same,urinary output,[2]; 3rd hour post initiation of treatment,400 mL/h
same,urinary output,[2]; 4th hour post initiation of treatment,180 mL/h
same,urinary output,[2]; 5th hour post initiation of treatment,125 mL/h
same,urinary output,[2]; 6th hour post initiation of treatment,145 mL/h
same,arterial blood oxygen levels,"[2]; after 6 hours of sodium ascorbate treatment, 65 pre-treatment, FiO2:40%",90 mm Hg
same,time to extubation,[2]; after the treatment (intensive care day 15),12 days
same,time to discharge from hospital without any complications,[2]; after treatment,22 days
same,lactate,"[2]; during the treatment, decreased from 2.6",1.9 mmol/L
same,FiO2,"[2]; during the treatment, dropped from 0.45, positive end-expiratory pressure 14 cm H2O",0.30
same,heart rate,"[2]; during the treatment, dropped from 130",105 beats/min
same,"time in which blood pressure normalised, vasopressor requirements reduced and renal function improved","[2]; human patient with COVID-19, mega dose intravenous vitamin C",less than six hours
same,urine flow,"[2]; increase during the treatment, from 10",400 mL/h
same,plasma creatinine,"[2]; over the course of sodium ascorbate administration (30 g over 30 minutes then 30 g infusion), 118 before treatment, n=1",84 µmol/L
same,norepinephrine infusion,"[2]; over the course of sodium ascorbate administration, 8 before",0 µg/min
same,increase in urinary output,[3]; [6],greatest in the 3 g/kg sodium ascorbate treatment group
same,normalisation of body temperature,[3]; [6],strongest in the 3 g/kg sodium ascorbate treatment group
same,recovery in arterial PO2,[3]; [6],strongest in the 3 g/kg sodium ascorbate treatment group
same,reduction in arterial blood lactate levels,[3]; [6],greatest in the 3 g/kg sodium ascorbate treatment group
same,norepinephrine dose requirements,"[3]; 1, 2 and 3 g/kg sodium ascorbate for 7 hours, n=2 each",reduction in norepinephrine dose requirements with increased sodium ascorbate doses
same,renal medullary oxygen levels,[3]; [7],improvement
same,vasopressor requirements for attaining target blood pressure (75-80 mm Hg),[3]; [7],Total withdrawal of vasopressor requirements
same,adverse side-effects,[3]; during these pre-clinical studies,No adverse side-effects were observed
same,dose required to provide optimal benefits towards reversing the pathophysiological features of sepsis,"[3]; intravenous, based on dose response analysis and Examples 1 and 2",at least 3 g/kg

# From US20230136075A1, “TREATMENT FOR SEPSIS-INDUCED ORGAN DYSFUNCTION” (The Florey Institute of Neuroscience and Mental Health, priority 2020, published 2023)
